Reference: patent publication US12460317B2 (The Texas A&M University System, priority 2019, dated 2025)
Starred links: 1 amine or outer side, 2 acyl side, 3 side chain; linkers in the order of their positions; H or OH if unused. Positions of bridges follow the written chain, without caps; N, C: chain ends. Residues, ends and D or L forms follow the SMILES beside them. *: point of attachment. 5FAM = O=C1OC2(c3ccc(O)cc3Oc3cc(O)ccc32)c2ccc(C(=O)*)cc21; CH2CH2CO = O=C(CC[*:1])[*:2]

Tests used:
[1] = physiological conditions; cited from earlier work
HDAC8 = HDAC8 (Homo sapiens, UniProt Q9BY41); assay: biochemical
Chain of HDAC8 (Q9BY41 whole entry): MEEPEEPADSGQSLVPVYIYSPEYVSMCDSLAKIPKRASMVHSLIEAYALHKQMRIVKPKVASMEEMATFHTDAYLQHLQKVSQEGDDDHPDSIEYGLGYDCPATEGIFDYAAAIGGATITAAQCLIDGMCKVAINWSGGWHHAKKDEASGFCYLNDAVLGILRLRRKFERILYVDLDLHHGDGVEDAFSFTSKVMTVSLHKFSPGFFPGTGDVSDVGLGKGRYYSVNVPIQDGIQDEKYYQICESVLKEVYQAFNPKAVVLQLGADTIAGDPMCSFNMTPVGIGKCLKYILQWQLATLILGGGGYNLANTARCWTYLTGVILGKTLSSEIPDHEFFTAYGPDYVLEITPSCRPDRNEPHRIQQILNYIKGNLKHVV
Description: Applicants incubated a 25 nM 5-FAM-conjugated cyclic peptide and different concentrations of a target protein (160 nM to 160 μM) in black 96-well plates in a 200 μL total volume that was adjusted by adding a PBS buffer. The fluorescence polarization was measured in a microplate reader at Ex/Em=490 nm/520 nm.

| Compound | second-order rate constant of reaction with a thiol [1] | Kd (HDAC8) |
| --- | --- | --- |
| C=CC(=O)NCCCC[C@H](N)C(=O)O [AcrK, N^ε-acryloyl-lysine] | 0.004 M⁻¹ s⁻¹ | – |
| CSCC[C@@H]1NC(=O)[C@H](Cc2c[nH]c3ccccc23)NC(=O)[C@H](CC(C)C)NC(=O)[C@H](CO)NC(=O)[C@H](CCC(N)=O)NC(=O)[C@@H](N)CSCCC(=O)NCCCC[C@@H](C(=O)N[C@@H](CCCCNC(=O)c2ccc3c(c2)C(=O)OC32c3ccc(O)cc3Oc3cc(O)ccc32)C(N)=O)NC(=O)[C@H](CC(N)=O)NC1=O [CycH8a, CQSLWMNX] (H-CQSLWMNKK(5FAM)-NH2; linker 1-8 via CH2CH2CO) | – | 7.1 µM |
